Experimental data reported in US7018987B1 (priority 1998, dated 2006).
In brackets after ≈: the same amount, converted by molar mass. Like-named read-outs stand apart in the source and are kept apart here.

Key:
[1] = test system: DU-145; assay type: cell-based, Human
[2] = test system: FADU; assay type: cell-based, Human
[3] = test system: NCI-H460; assay type: cell-based, Human
[4] = test system: SW1736; assay type: cell-based, Human
[5] = test system: SK-N-SH; assay type: cell-based, Human
[6] = test system: BXPC-3; assay type: cell-based, Human
[7] = test system: P388 lymphocytic leukemia; assay type: cell-based, Murine
[8] = test system: Micrococcus luteus; assay: Disk susceptibility testing, Micrococcus luteus; assay type: cell-based
[9] = test system: Neisseria gonorrhoeae; assay type: cell-based
[10] = Solubility in water; conditions: for Solubility: mg per 1 ml water at 25° C.
[11] = test system: SK-Mel-3; assay type: cell-based, Human
[12] = test system: tubulin; conditions: reported (Lin et al., 1988); cited from earlier work
[13] = test system: full-panel NCl screen; conditions: cited from earlier work; for GI50: read-out: mean panel GI50 concentration
[14] = test system: Candida albicans; assay: Disk susceptibility testing, Candida albicans; assay type: cell-based
[15] = test system: Cryptococcus neoformans; assay: Disk susceptibility testing, Cryptococcus neoformans; assay type: cell-based
[16] = test system: eight bacteria and two fungi tested; assay: Disk susceptibility testing, whole microbe panel; assay type: cell-based; conditions: for antimicrobial growth inhibition (in words): disk susceptibility, bacteria and fungi tested; for Microbe(s) inhibited: at 100 μg/disk, eight bacteria and two fungi
[17] = murine P-388 leukemia, 48 hours
[18] = Neisseria gonorrhoeae, disk susceptibility

| Compound | GI50 Prostate DU-145 ([1]; DU-145, 48 hours) | GI50 Pharynx FADU ([2]; FADU, 48 hours) | GI50 Lung-NSC NCI-H460 ([3]; NCI-H460, 48 hours) | GI50 Thyroid SW1736 ([4]; SW1736, 48 hours) | GI50 Neuroblast SK-N-SH ([5]; SK-N-SH, 48 hours) | GI50 Pancreas BXPC-3 ([6]; BXPC-3, 48 hours) | ED50 P-388 [7, 17] | Minimum inhibitory amount per disk [9, 18] | Solubility [10] | GI50 Melanoma SK-Mel-3 ([11]; SK-Mel-3, 48 hours) | also measured |
| --- | --- | --- | --- | --- | --- | --- | --- | --- | --- | --- | --- |
| COc1ccc(/C=C/c2cc(OC)c(OC)c(OC)c2)cc1O [Compound 4a, (E)-combretastatin A-4] | 0.037 µg/mL (≈ 0.117 µM) | 0.040 µg/mL (≈ 0.126 µM) | 0.038 µg/mL (≈ 0.12 µM) | 0.080 µg/mL (≈ 0.253 µM) | 0.029 µg/mL (≈ 0.0917 µM) | 3.9 µg/mL (≈ 12.3 µM) | 0.280 µg/mL (≈ 0.885 µM) |  |  |  | Minimum inhibitory amount per disk [8]: 25–50 μg/disk |
| Cinchonine combretastatin A-4 3-O-phosphate [Compound 5n] | 0.030 µg/mL | 0.024 µg/mL | 0.037 µg/mL | 0.089 µg/mL |  | 1.6 µg/mL | 0.020 µg/mL | 25–50 μg/disk | 4000 µg/mL |  |  |
| Combretastatin A-4 [Compound 1a, reference compound] |  |  |  |  |  |  |  |  |  |  | GI50 Prostate DU-145 [1]: 0.00076 µg/mL; GI50 Pharynx FADU [2]: 0.00065 µg/mL; GI50 Lung-NSC NCI-H460 [3]: 0.00056 µg/mL; GI50 Thyroid SW1736 [4]: 0.00071 µg/mL; GI50 Neuroblast SK-N-SH [5]: 0.00026 µg/mL; GI50 Pancreas BXPC-3 [6]: >0.1 µg/mL; GI50 Melanoma SK-Mel-3 [11]: 0.0002 µg/mL; ED50 P-388 [7]: 0.00266 µg/mL; Minimum inhibitory amount per disk [9]: 25–50 μg/disk; growth inhibition of Neisseria gonorrhoeae (in words) [9]: inhibited growth; inhibition at the colchicine binding site of tubulin [12]: 97%; GI50 [13]: 6.61 nM |
| Manganese combretastatin A-4 3′-O-phosphate [Compound 5e] | <0.001 µg/mL | 0.00091 µg/mL | 0.0015 µg/mL | 14.7 µg/mL | 0.014 µg/mL | 0.20 µg/mL | 0.016 µg/mL | 6.25–12.5 μg/disk | 3000 µg/mL | 0.0036 µg/mL | Minimum inhibitory concentration [14]: 25–50 μg/disk; Minimum inhibitory concentration [15]: 12.5–25 μg/disk; antimicrobial growth inhibition (in words) [16]: inhibitory to opportunistic fungi |
| Piperazine combretastatin A-4 3′-O-phosphate [Compound 5i] | 0.0011 µg/mL | 0.0018 µg/mL | 0.0028 µg/mL | 23.5 µg/mL | 0.021 µg/mL | 0.19 µg/mL | 0.0016 µg/mL | 25–50 μg/disk |  | 0.0036 µg/mL | Minimum inhibitory concentration [14]: 50–100 μg/disk; Minimum inhibitory concentration [15]: 25–50 μg/disk; antimicrobial growth inhibition (in words) [16]: inhibitory to opportunistic fungi |
| Pyridine combretastatin A-4 3′-O-phosphate [Compound 5l] | 0.036 µg/mL | 0.032 µg/mL | 0.038 µg/mL | 0.01 µg/mL | 0.03 µg/mL | 11.6 µg/mL | <0.001 µg/mL |  | 3000 µg/mL | 0.35 µg/mL | Microbe(s) inhibited [16]: * (At 100 μg/disk no inhibition of the eight bacteria and two fungi tested.) |
| Quinidine combretastatin A-4 3-O-phosphate [Compound 5q] | 0.0036 µg/mL | 0.0033 µg/mL | 0.0039 µg/mL | 0.11 µg/mL |  | 0.43 µg/mL | 0.0032 µg/mL | 6.25–12.5 μg/disk |  |  |  |
| Sodium (E)-combretastatin A-4 3′-O-phosphate [Compound 4c] | 0.044 µg/mL | 0.071 µg/mL | 0.038 µg/mL | 11.2 µg/mL | 3.1 µg/mL | 4.0 µg/mL | 0.02 µg/mL | 50–100 μg/disk | 4000 µg/mL | 0.036 µg/mL | solubility in water (in words) ([10]; water): sparingly soluble in water |
| Sodium (Z)-combretastatin A-4 3′-O-phosphate [Compound 3d] | 0.0072 µg/mL | 0.0045 µg/mL | 0.0035 µg/mL | 0.0061 µg/mL | 0.0025 µg/mL | 0.23 µg/mL | 0.00292 µg/mL | 50–100 μg/disk | 20000 µg/mL |  | growth inhibition of Neisseria gonorrhoeae (in words) ([9]; disk susceptibility): inhibited growth; Pearson correlation coefficient, TGI-COMPARE differential cytotoxicity profile versus combretastatin A-4 1a ([13]; full-panel NCI screen, previously reported): 0.91; GI50 ([13]; full-panel NCI screen, quadruplicate, three concentration ranges, previously reported): 6.89 nM |
| Zinc combretastatin A-4 3′-O-phosphate [Compound 5f] | 0.0062 µg/mL | 0.0070 µg/mL | 0.0074 µg/mL | 0.059 µg/mL | 0.024 µg/mL | 1.1 µg/mL | 0.0343 µg/mL |  | 11000 µg/mL | 1.0 µg/mL | Microbe(s) inhibited [16]: * (At 100 μg/disk no inhibition of the eight bacteria and two fungi tested.) |
